Source: ChEMBL document CHEMBL1137042, “Synthesis and cytotoxic activity of novel derivatives of 4'-demethylepipodophyllotoxin” (Bioorg Med Chem Lett, 2004)

What was measured:
HL-60 = experiment: In vitro inhibitory concentration required against human leukemic HL-60 cell line was determined after 48 hrs of drug exposure using MTT method; assay type: functional, cell-based; conditions: HL-60, 48 h
A549 = experiment: In vitro inhibitory concentration required against human lung carcinoma A-549 cell line was determined after 72 hrs of drug exposure using SRB method; assay type: functional, cell-based; conditions: A549, 72 h

Compound | IC50 (HL-60) | IC50 (A549)
COc1cc([C@@H]2c3cc4c(cc3[C@@H](NC(C(=O)OCCCCCn3cc(F)c(=O)[nH]c3=O)C(C)Cc3ccccc3)[C@H]3COC(=O)[C@H]23)OCO4)cc(OC)c1O (stereo not given in full) | 300 nM | 530 nM
COc1cc([C@@H]2c3cc4c(cc3[C@@H](NC(CSC)C(=O)OCCCCCn3cc(F)c(=O)[nH]c3=O)[C@H]3COC(=O)[C@H]23)OCO4)cc(OC)c1O (stereo not given in full) | 40 nM | 230 nM
COc1cc([C@@H]2c3cc4c(cc3[C@@H](NC(Cc3ccccc3)C(=O)OCCCCn3cc(F)c(=O)[nH]c3=O)[C@H]3COC(=O)[C@H]23)OCO4)cc(OC)c1O (stereo not given in full) | 420 nM | 300 nM
O=c1[nH]cc(F)c(=O)[nH]1 [FLUOROURACIL] | 65300 nM | 50500 nM
COc1cc([C@@H]2c3cc4c(cc3[C@@H](NC(C(=O)OCCCn3cc(F)c(=O)[nH]c3=O)C(C)Cc3ccccc3)[C@H]3COC(=O)[C@H]23)OCO4)cc(OC)c1O (stereo not given in full) | 240 nM | 180 nM
COc1cc([C@@H]2c3cc4c(cc3[C@@H](NC(CSC)C(=O)OCCCCn3cc(F)c(=O)[nH]c3=O)[C@H]3COC(=O)[C@H]23)OCO4)cc(OC)c1O (stereo not given in full) | 50 nM | 1870 nM
COc1cc([C@@H]2c3cc4c(cc3[C@@H](NC(Cc3ccccc3)C(=O)OCCCCCn3cc(F)c(=O)[nH]c3=O)[C@H]3COC(=O)[C@H]23)OCO4)cc(OC)c1O (stereo not given in full) | 40 nM | < 10 nM
COc1cc([C@@H]2c3cc4c(cc3[C@@H](NC(CSC)C(=O)OCCCn3cc(F)c(=O)[nH]c3=O)[C@H]3COC(=O)[C@H]23)OCO4)cc(OC)c1O (stereo not given in full) | 990 nM | 290 nM
COc1cc([C@@H]2c3cc4c(cc3[C@@H](NC(Cc3ccccc3)C(=O)OCCCn3cc(F)c(=O)[nH]c3=O)[C@H]3COC(=O)[C@H]23)OCO4)cc(OC)c1O (stereo not given in full) | 310 nM | 480 nM
COc1cc([C@@H]2c3cc4c(cc3[C@@H](NC(C(=O)OCCCCn3cc(F)c(=O)[nH]c3=O)C(C)Cc3ccccc3)[C@H]3COC(=O)[C@H]23)OCO4)cc(OC)c1O (stereo not given in full) | 530 nM | 740 nM
